Target: T1, human leukocytic elastase (HLE) (Homo sapiens, UniProt P08246)
T1 sequence (P08246 30-267): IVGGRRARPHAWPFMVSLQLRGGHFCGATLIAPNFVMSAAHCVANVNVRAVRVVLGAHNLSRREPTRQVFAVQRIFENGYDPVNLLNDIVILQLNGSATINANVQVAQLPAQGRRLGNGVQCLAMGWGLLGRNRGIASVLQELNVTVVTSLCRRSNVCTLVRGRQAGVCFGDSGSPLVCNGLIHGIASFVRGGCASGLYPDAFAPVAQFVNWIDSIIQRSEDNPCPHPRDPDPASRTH
Experiment: Inhibition of human leukocytic elastase, kinetics of p-nitroaniline release at 410 nm
Format: biochemical
Conditions: read-out: percentage of inhibition of the anti-elastase activity after 10 min
Description: A test to ascertain the activity of a polar lipid mixture in accordance with the invention on the inhibition of a specific enzyme, human leukocytic elastase (HLE), was carried out at the Connective Tissue Laboratory of the CNRS at Cretail (France). HLE is able to destroy elastin and therefore cause cell aging. HLE also detrimentally effects the arterial walls.
The activity of the mixture in accordance with the invention was compared with that of oleic acid, the reference substance.
This test measures the inhibition of the enzymatic activity by different preparations tested by following the kinetics at 410 nm of the degradation of a substrate, S, corresponding essentially to elastin: Me-O-Suc-Ala2 -Pro-Val-pNa(N-Methoxy-succinyl-Ala-Ala-Pro-Val-p-Nitroanilide). In this test, changes in the concentration of p-Nitroaniline, released due to the effect of the activity of HLE on the substrate, S, is measured over time.
In order to carry out these tests:
either 0.1M Tris-Cl+0.01% Triton X-100 at pH 8
was used as the reaction buffer, B. […]
Spectrophotometer readings were taken at 410 nm relative to the p-Nitroaniline concentration and the results obtained were then transferred to Curves 1 to 5, which correspond to the cell samples of the same numbering. […]
On each of these curves, the time in min was recorded on the abscissa and the optical deviation, OD, read at 410 nm, was recorded on the ordinate. […]

How did the inhibition at 0.1 µg/mL (oleic acid at 0.1 μg/ml) turn out when `CCCCCCCC/C=C\CCCCCCCC(=O)O` [Reference oleic acid, oleic acid] was run?
Its inhibition at 0.1 µg/mL is 36%.

What about the inhibition at 1 µg/mL (oleic acid at 1.0 μg/ml) of the same compound?
The inhibition at 1 µg/mL was 84%.
